Laboratory results: US7825114B2, “Substituted aminopyrazolopyridines and salts thereof, pharmaceutical compositions comprising same, methods of preparing same and uses of same” (Bayer Schering Pharma AG, priority 2006, dated 2010)

Experiments:
human c-kit = molecular target: T1, human c-kit (Homo sapiens, UniProt P10721); assay: cKIT-Kinase HTRF-Assay (assay 4); format: biochemical; conditions: for IC50: GST-tagged kinase domain of human c-kit, 10 μM ATP; for Selectivity vs. cKit: IC50 assay 4/IC50 assay 2
T1 construct: GST-tagged recombinant kinase domain of the human c-kit; GST; host or cells: SF-9 insect cells
Protocol: Assay 4: cKIT-Kinase HTRF-Assay
c-Kit-inhibitory activity of compounds of the present invention was quantified employing the c-kit HTRF assay as described in the following paragraphs. GST-tagged recombinant kinase domain of the human c-kit expressed in SF-9 cells was used as kinase. As substrate for the kinase reaction biotinylated poly-(Glu,Tyr) (Cis biointernational, France) was used.
c-Kit was incubated for 30 min at 22° C. in the presence of different concentrations of test compounds in 5 μl assay buffer [50 mM Hepes/NaOH pH 7.0, 1 mM MgCl2, 5 mM MnCl2, 1.0 mM dithiothreitol, 0.1 mM sodium ortho-vanadate, 10 μM adenosine-tri-phosphate (ATP), 1.3 μg/ml substrate, 0.001% (v/v) Nonidet-P40 (Sigma), 1% (v/v) dimethylsulfoxide]. The concentration of c-kit was adjusted depending of the activity of the enzyme lot and was chosen appropriate to have the assay in the linear range. The reaction was stopped by the addition of 5 μl of a solution of HTRF detection reagents (0.1 μM streptavidine-XLent and 1 nM PT66-Eu-Chelate, an europium-chelate labelled anti-phospho-tyrosine antibody from Perkin Elmer) in an aqueous EDTA-solution (80 mM EDTA, 0.2% (w/v) bovine serum albumin in 50 mM HEPES/NaOH pH 7.0).
(§1) The resulting mixture was incubated 1 h at 22° C. to allow the binding of the biotinylated phosphorylated peptide to the streptavidine-XLent and the PT66-Eu-Chelate. Subsequently the amount of phosphorylated substrate was evaluated by measurement of the resonance energy transfer from the PT66-Eu-Chelate to the streptavidine-XLent. Therefore, the fluorescence emissions at 620 nm and 665 nm after excitation at 350 nm was measured in a HTRF reader, e.g. a Rubystar (BMG Labtechnologies, Offenburg, Germany) or a Viewlux (Perkin-Elmer). The ratio of the emissions at 665 nm and at 622 nm was taken as the measure for the amount of phosphorylated substrate.

Tie2 [1] = molecular target: T2, Tie2 (Homo sapiens, UniProt Q02763); assay: Tie2 ELISA assay (assay 1): cellular Tie2 autophosphorylation; format: cell-based; parameters: expressed in transfected cells; host or cells: CHO (DHFR-deficient), stably transfected; conditions: CHO cells stably transfected with Tie2, stimulated by angiopoietin-2; Tie2 autophosphorylation by sandwich-ELISA; read-out: Tie 2 activity (assay 1)
Protocol: Assay 1: Tie2 ELISA Assay
Cellular activity of compounds of the present invention as inhibitors of Tie2 kinase activity was measured employing a Tie2 ELISA assay as described in the following paragraphs. Herein CHO cell-cultures, which are stably transfected by known techniques with Tie2 using DHFR deficiency as selection marker, are stimulated by angiopoietin-2. The specific autophosphorylation of Tie2 receptors is quantified with a sandwich-ELISA using anti-Tie2 antibodies for catch and anti-phosphotyrosine antibodies coupled to HRP for detection. […]
Target sequence in this assay (Q02763 23-1124): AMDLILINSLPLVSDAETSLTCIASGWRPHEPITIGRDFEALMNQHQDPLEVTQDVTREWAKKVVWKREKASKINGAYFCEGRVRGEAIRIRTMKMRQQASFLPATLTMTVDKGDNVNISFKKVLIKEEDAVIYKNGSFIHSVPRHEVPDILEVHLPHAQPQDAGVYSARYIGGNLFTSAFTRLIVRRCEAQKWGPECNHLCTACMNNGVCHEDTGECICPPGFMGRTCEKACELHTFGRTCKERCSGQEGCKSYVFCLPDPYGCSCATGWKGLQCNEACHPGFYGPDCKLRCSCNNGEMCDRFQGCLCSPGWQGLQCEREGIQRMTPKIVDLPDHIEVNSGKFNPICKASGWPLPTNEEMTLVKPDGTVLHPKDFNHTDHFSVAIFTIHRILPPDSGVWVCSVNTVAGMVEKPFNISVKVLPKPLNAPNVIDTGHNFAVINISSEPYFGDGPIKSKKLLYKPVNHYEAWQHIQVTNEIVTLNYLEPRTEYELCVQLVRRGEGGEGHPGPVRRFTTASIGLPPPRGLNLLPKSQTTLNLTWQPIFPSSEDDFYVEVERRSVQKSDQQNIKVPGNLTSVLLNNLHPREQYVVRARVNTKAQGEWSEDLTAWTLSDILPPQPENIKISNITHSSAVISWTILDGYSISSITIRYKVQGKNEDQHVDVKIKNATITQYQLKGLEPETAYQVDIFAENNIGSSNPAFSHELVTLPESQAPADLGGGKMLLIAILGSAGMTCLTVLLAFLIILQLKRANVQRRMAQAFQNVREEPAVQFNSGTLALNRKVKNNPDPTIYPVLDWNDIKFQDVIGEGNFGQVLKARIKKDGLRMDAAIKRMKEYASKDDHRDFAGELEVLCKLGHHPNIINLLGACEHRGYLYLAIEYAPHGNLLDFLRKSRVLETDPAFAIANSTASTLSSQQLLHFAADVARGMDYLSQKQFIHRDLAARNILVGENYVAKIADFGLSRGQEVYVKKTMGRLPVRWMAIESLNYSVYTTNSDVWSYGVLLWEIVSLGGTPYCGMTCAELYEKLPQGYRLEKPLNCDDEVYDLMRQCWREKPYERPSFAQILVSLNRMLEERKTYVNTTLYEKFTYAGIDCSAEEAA

Tie2 [2] = molecular target: T2, Tie2; assay: Tie-2-Kinase HTRF-Assay without kinase preactivation (assay 2); format: biochemical; parameters: A recombinant fusion protein of GST and the intracellular domains of Tie-2; GST; made in house; host or cells: insect cells (Hi-5); conditions: GST-Tie-2 intracellular domains, no preactivation, 10 μM ATP
Description: Assay 2: Tie-2-Kinase HTRF-Assay without Kinase Preactivation
Tie2-inhibitory activity of compounds of the present invention was quantified employing two Tie2 HTRF assay as described in the following paragraphs.
A recombinant fusion protein of GST and the intracellular domains of Tie-2, expressed in insect cells (Hi-5) and purified by Glutathion-Sepharose affinity chromatography was used as kinase. Alternatively, commercially available GST-Tie2-fusion protein (Upstate Biotechnology, Dundee, Scotland) can be used As substrate for the kinase reaction the biotinylated peptide biotin-Ahx-[…] (C-terminus in amid form) was used which can be purchased e.g. from the company Biosynthan GmbH (Berlin-Buch, Germany). Detection of phosphorylated product is achieved specifically by a trimeric detection complex consisting of the phosphorylated substrate, streptavidin-XLent (SA-XLent) which binds to biotin, and Europium Cryptate-labeled anti-phosphotyrosine antibody PT66 which binds to phosphorylated tyrosine.
The reaction was stopped by the addition of 5 μl of an aqueous buffer (25 mM Hepes/NaOH pH 7.5, 0.28% (w/v) bovine serum albumin) containing EDTA (90 mM) and the HTRF (Homogeneous Time Resolved Fluorescence) detection reagents streptavidine-XLent (0.2 μM, from Cis Biointernational, Marcoule, France) and PT66-Eu-Chelate (0.3 ng/μl; a europium-chelate labelled anti-phospho-tyrosine antibody from Perkin Elmer).
as §1, with “substrate peptide” for “substrate”, “substrate peptide.” for “substrate.”
Target sequence in this assay (Q02763 770-1124 limits assumed): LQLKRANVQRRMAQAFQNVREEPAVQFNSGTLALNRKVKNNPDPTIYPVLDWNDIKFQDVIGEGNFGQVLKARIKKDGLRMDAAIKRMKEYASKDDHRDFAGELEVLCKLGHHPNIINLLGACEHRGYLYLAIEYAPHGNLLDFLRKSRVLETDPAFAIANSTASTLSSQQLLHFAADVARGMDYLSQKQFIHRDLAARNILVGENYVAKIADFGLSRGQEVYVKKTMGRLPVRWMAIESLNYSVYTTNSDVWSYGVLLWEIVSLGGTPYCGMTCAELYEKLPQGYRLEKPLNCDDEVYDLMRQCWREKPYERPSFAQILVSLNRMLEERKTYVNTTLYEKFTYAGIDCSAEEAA

Tie2 vs. KDR [3] = conditions: Albert et al. Mol. Cancer. Ther. 2006, 5, 995; cited from earlier work
Tie2 vs. KDR [4] = conditions: Albert et al. Mol. Cancer. Ther. 2006, 5, 995; cited from earlier work; remark: listed apart in the source

T1 sequence (P10721 589-937 limits assumed): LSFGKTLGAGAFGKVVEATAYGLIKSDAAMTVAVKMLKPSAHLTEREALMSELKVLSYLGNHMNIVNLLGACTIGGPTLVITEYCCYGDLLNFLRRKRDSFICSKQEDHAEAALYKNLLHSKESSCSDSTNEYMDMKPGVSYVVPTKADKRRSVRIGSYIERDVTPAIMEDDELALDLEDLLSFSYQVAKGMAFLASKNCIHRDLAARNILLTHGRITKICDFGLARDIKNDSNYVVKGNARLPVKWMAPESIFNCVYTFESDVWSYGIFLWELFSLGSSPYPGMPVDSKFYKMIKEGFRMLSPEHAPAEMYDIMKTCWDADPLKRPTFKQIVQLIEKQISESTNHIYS

Row | Structure (SMILES) | IC50 (human c-kit) [nM] | Selectivity vs. cKit (human c-kit) | IC50 (Tie2 [1]) [nM] | IC50 (Tie2 [2]) [nM] | times less active against Tie2 vs. KDR in enzymatic assays (Tie2 vs. KDR [3]) [times] | times less active against Tie2 than KDR in cellular assays (Tie2 vs. KDR [4]) [times]
1 | Cn1nc(N)c2c(-c3ccc(NC(=O)Nc4cccc(C(F)(F)F)c4)cc3)cc(C3(C(N)=O)CC3)nc21 [Example 2.1, 1-(3-Amino-1-methyl-4-{4-[3-(3-trifluoromethyl-phenyl)-ureido]-phenyl}-1H-pyrazolo[3,4-b]pyridin-6-yl)-cyclopropanecarboxylic acid amide] | 100 to 1000 | 6 | ≤ 100 | ≤ 100 |  | 
2 | Cc1ccc(F)c(NC(=O)Nc2ccc(-c3cc(C4(C(=O)N5CCCC5)CC4)nc4c3c(N)nn4C)cc2)c1 [Example 4.3] | 1000 to 10000 | >100 | ≤ 100 | ≤ 100 |  | 
3 | Cc1ccc(F)c(NC(=O)Nc2ccc(-c3cc(C4(C(=O)N(C)C)CC4)nc4c3c(N)nn4C)cc2)c1 [Example 4.4, 1-(3-Amino-4-{4-[3-(2-fluoro-5-methyl-phenyl)-ureido]-phenyl}-1-methyl-1H-pyrazolo[3,4-b]pyridin-6-yl)-cyclopropanecarboxylic acid dimethylamide] | 1000 to 10000 | 15 | ≤ 100 | ≤ 100 |  | 
4 | Cc1ccc(F)c(NC(=O)Nc2ccc(-c3cccc4[nH]nc(N)c34)cc2)c1 [PA1, 1-[4-(3-Amino-1H-indazol-4-yl)-phenyl]-3-(2-fluoro-5-methyl-phenyl)-urea] |  |  |  |  | ~40 | ~1000
5 | Cn1nc(N)c2c(-c3ccc(NC(=O)Nc4cccc(C(F)(F)F)c4)cc3)ccnc21 [PA4, 1-[4-(3-Amino-1-methyl-1H-pyrazolo[3,4-b]pyridin-4-yl)-phenyl]-3-(3-trifluoromethyl-phenyl)-urea, reference compound] | 100 to 1000 | 1.6 | ≤ 100 | ≤ 100 |  | 
6 | Cc1ccc(F)c(NC(=O)Nc2ccc(-c3ccnc4c3c(N)nn4C)cc2)c1 [PA5, 1-[4-(3-Amino-1-methyl-1H-pyrazolo[3,4-b]pyridin-4-yl)-phenyl]-3-(2-fluoro-5-methyl-phenyl)-urea, reference compound] | ≤ 100 | 0.5 | ≤ 100 | 100 to 1000 |  | 
7 | Cn1nc(N)c2c(-c3ccc(NC(=O)Nc4ccccc4)cc3)ccnc21 [PA6, 1-[4-(3-Amino-1-methyl-1H-pyrazolo[3,4-b]pyridin-4-yl)-phenyl]-3-phenyl-urea, reference compound] | ≤ 100 | 0.06 | 1000 to 10000 | 1000 to 10000 |  | 

Now from value to compound, other results behind:

Row | IC50 (human c-kit) [nM] | Selectivity vs. cKit (human c-kit) | IC50 (Tie2 [1]) [nM] | IC50 (Tie2 [2]) [nM] | Structure (SMILES) | times less active against Tie2 vs. KDR in enzymatic assays (Tie2 vs. KDR [3]) [times] | times less active against Tie2 than KDR in cellular assays (Tie2 vs. KDR [4]) [times]
8 | 1000 to 10000 | 20 | ≤ 100 | ≤ 100 | Cn1nc(N)c2c(-c3ccc(NC(=O)Nc4cccc(C(F)(F)F)c4)cc3)cc(C3CCC3)nc21 [Example 6.1, 1-[4-(3-Amino-6-cyclobutyl-1-methyl-1H-pyrazolo[3,4-b]pyridin-4-yl)-phenyl]-3-(3-trifluoromethyl-phenyl)-urea] |  | 
9 | 100 to 1000 | 9 | ≤ 100 | ≤ 100 | Cn1nc(N)c2c(-c3ccc(NC(=O)Nc4cccc(C(F)(F)F)c4)cc3)cc(C3CCCCC3)nc21 [Example 7.1, 1-[4-(3-Amino-6-cyclohexyl-1-methyl-1H-pyrazolo[3,4-b]pyridin-4-yl)-phenyl]-3-(3-trifluoromethyl-phenyl)-urea] |  | 
10 | 1000 to 10000 | 30 | ≤ 100 | ≤ 100 | COC(=O)C[C@@H]1C[C@H](c2cc(-c3ccc(NC(=O)Nc4cccc(C(F)(F)F)c4)cc3)c3c(N)nn(C)c3n2)C1(C)C [Example 8.2, [3-(3-Amino-1-methyl-4-{4-[3-(3-trifluoromethyl-phenyl)-ureido]-phenyl}-1H-pyrazolo[3,4-b]pyridin-6-yl)-2,2-dimethyl-cyclobutyl]-acetic acid methyl ester] |  | 
11 | ≤ 100 | 0.67 | ≤ 100 | ≤ 100 | Nc1n[nH]c2nccc(-c3ccc(NC(=O)Nc4cccc(C(F)(F)F)c4)cc3)c12 [PA2, 1-[4-(3-Amino-1H-pyrazolo[3,4-b]pyridin-4-yl)-phenyl]-3-(3-trifluoromethyl-phenyl)-urea, reference compound] |  | 
12 | ≤ 100 | 0.26 | 100 to 1000 | ≤ 100 | Cc1ccc(F)c(NC(=O)Nc2ccc(-c3ccnc4[nH]nc(N)c34)cc2)c1 [PA3, 1-[4-(3-Amino-1H-pyrazolo[3,4-b]pyridin-4-yl)-phenyl]-3-(2-fluoro-5-methyl-phenyl)-urea, reference compound] |  | 
